SMILES strings stand for the structures. ≈ marks a conversion by molar mass, not a printed value.

For one data set, the target named is T1, OAT1 (Homo sapiens, UniProt Q4U2R8).
T1 sequence (Q4U2R8 1-563): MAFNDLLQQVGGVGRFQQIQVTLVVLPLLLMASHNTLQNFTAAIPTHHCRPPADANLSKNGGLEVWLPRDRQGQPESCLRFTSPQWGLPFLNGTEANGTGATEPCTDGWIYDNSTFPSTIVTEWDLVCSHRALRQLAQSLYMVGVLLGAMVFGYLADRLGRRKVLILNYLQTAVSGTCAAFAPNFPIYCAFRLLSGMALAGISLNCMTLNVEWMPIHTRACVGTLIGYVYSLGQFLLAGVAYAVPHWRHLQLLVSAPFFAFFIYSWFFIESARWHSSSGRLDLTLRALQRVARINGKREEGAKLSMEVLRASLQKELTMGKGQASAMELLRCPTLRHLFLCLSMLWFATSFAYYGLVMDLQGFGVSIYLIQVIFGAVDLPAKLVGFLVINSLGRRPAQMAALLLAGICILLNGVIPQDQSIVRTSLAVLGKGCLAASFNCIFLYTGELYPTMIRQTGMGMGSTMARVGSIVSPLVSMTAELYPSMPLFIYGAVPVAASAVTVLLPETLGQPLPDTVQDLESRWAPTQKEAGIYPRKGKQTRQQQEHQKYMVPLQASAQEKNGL
The data set can be described thus: Preclinical transporter substrate assessment (unpublished). It is filed as in vitro ADME.

The nature of data set [1]: Drug-drug interaction study of HSK7653 with metformin, multiple doses, Chinese healthy volunteers (CTR20191549): pharmacokinetics. The note with it: human, in vivo, oral, Multiple dose (D1 35 mg; D8/D15/D22 25 mg) with metformin, fasted.
A further data set deals with T2, MATE1 (Homo sapiens, UniProt Q96FL8).
T2 sequence (Q96FL8 1-570): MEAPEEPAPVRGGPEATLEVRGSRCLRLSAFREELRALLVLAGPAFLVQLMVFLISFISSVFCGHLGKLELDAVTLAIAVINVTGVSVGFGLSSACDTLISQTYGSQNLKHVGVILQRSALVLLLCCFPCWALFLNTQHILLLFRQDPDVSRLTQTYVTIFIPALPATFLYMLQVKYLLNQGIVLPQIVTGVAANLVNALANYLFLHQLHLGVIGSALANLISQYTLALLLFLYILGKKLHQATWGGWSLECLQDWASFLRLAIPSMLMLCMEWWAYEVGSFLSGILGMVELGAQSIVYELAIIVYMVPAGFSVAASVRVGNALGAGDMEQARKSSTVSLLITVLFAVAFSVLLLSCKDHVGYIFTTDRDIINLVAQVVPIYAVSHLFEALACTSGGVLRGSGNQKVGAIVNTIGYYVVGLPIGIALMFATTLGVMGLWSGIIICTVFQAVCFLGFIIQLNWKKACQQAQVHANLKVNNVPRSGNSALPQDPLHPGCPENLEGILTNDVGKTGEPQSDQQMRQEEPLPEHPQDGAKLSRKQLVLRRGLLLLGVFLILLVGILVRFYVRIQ
The data set can be described thus: Preclinical transporter substrate assessment (unpublished). It is filed as in vitro ADME.

The next data set in a line: in vitro. The note with it: human.
Data set [2] is described as follows: Dissolution profile of HSK7653 tablets at pH 4.5 acetum. It is filed as physicochemical. The source says: (§1) The development of the DLM was complex.
The next data set addresses MATE2-K (Homo sapiens, UniProt Q86VL8). Description: Preclinical transporter substrate assessment (unpublished). It is filed as in vitro ADME.
In another data set the target is T3, OCT2 (Homo sapiens, UniProt O15244).
T3 sequence (O15244 1-555): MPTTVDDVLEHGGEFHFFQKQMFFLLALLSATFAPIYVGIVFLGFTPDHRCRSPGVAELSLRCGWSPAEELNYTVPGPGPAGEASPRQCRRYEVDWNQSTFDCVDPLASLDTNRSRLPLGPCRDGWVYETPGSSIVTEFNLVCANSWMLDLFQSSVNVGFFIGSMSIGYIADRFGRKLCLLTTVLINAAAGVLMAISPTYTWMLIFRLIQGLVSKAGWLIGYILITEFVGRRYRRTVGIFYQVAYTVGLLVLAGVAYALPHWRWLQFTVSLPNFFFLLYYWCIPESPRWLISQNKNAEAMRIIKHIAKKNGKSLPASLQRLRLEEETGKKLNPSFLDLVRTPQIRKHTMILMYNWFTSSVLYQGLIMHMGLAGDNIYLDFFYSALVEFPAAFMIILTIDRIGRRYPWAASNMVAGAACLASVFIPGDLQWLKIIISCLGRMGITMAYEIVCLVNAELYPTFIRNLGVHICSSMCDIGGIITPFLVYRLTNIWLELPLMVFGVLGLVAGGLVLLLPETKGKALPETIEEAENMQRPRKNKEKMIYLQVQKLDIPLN
Described as above. It is filed as in vitro ADME.

For data set [3] the following is noted: Predicted by SIVA from dissolution profile in FaSSGF.
Description: (§2) Based on the results of the two-stage biorelevant dissolution test (see Fig. 4 in 3.2 section), the precipitation parameters in the DLM were not assessed, and the critical supersaturation ratio (CSC) and precipitation rate constant (PRC) were set to the minimum values, respectively.
(§3) Furthermore, solubility parameters, representing the influence of pH and bile salts on the solubility, were estimated by Eq. (3) according to the experimental results.
(§4) Accordingly, it was unnecessary to evaluate the precipitation parameters for the development of DLM, which (CSC and PCR) were set to minimum values in DLM. Most importantly, the dissolution parameters, such as heff and DLMs, were estimated by Eq. (4) from the dissolution profile in 300 mL FaSSGF medium. Meanwhile, the disintegration lag time of the formulation was evaluated with the method of Weibull function, so that the dissolution profile could be captured by Eq. (4).
The nature of data set [4]: Multidose clinical study of biweekly HSK7653 IR tablets in T2DM patients (CTR20182505): pharmacokinetics. It is filed as in vivo, human. The conditions noted are these: biweekly administration of IR tablets.
In the next data set the test system is glycosylated hemoglobin. The data set can be described thus: Multidose exploratory clinical study of T2DM patients (CTR20182505): glycosylated hemoglobin. It is filed as in vivo, human. The note with it: after six doses of oral administration.
Data set [5] in a line: HSK7653 PBPK model development and fitting (SimCYP). On the set-up: species or system human. The conditions noted are these: Fitted (based on in vivo data).
Description: as §1
In this manuscript, we constructed the ADAM absorption model using the dissolution profile method and DLM method, respectively. The same disposition model was severally coupled with these two different absorption models to capture the absorption and disposition characteristics of HSK7653 in vivo. Here, we collected the CLint_hep and CLR from in vitro experimental results and in vivo clinical trial data without further optimization. […] Therefore, the disposition model of HSK7653 could accurately capture the elimination characteristics of HSK7653 in vivo. […] Furthermore, the models were also validated with PK data from a multiple dose clinical study (CTR20191549). […] Accordingly, the mechanism driven HSK7653 PBPK model can be used to simulate untested scenarios in specific populations.

Data set [6] can be described thus: Physicochemical parameters (log P, pKa) from experimental outcomes. The conditions noted are these: Measured (in vitro).
Description: as §1

A short description of data set [7]: Stability in human liver microsomes incubation system (unpublished). The conditions noted are these: 1 μM, 0.5 mg/mL human liver microsomes. For orientation: Microsomes from liver hold many membrane-bound enzymes, among them those of drug oxidation.
Description: (§5) Reactions were stopped by removing the plates from the incubator and mixing the incubation solution with 600 μL of ice-cold stop solution (acetonitrile) at the corresponding sampling time points.
A short description of data set [8]: Bioavailability in beagle dogs (unpublished). The note with it: dog, in vivo, oral.

Sequence of MATE2-K (Q86VL8 1-566 isoform Q86VL8-3, species assumed): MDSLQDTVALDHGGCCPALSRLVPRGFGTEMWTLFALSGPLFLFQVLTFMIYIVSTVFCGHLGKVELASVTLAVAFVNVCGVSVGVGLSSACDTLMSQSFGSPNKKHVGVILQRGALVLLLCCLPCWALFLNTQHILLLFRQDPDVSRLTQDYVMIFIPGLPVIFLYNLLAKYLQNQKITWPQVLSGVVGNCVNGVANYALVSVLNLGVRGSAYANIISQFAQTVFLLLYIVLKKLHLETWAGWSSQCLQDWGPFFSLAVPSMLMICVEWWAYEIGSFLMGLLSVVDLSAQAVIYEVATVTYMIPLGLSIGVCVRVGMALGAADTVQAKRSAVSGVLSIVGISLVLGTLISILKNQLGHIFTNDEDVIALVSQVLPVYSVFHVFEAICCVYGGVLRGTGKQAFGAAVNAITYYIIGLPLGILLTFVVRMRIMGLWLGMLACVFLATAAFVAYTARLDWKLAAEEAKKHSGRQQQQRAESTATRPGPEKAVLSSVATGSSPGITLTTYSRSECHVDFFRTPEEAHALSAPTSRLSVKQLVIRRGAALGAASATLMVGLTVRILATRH
Description for in vitro: as §5
Description for physchem: as §2, §3, §4

`CS(=O)(=O)n1cc2c(n1)CN([C@@H]1C[C@H](N)[C@@H](c3cc(F)ccc3F)O[C@@H]1C(F)(F)F)C2` [HSK7653]: the Transporter substrate assessment entry on OAT1, at MATE1, on MATE2-K and on OCT2 was “not a common transport substrate” throughout. The molecule further showed a Cmax in data set [1] of 533 ng/mL. Further, the clearance in data set [1] (read-out: CL Obs (converted)) was 9.17 mL/min. In addition, the Vd/F in [1] (read-out: VZ/F Obs) is 1.08 L/kg. The same molecule gave a half-life at 0.05 μM in “in vitro” (primary human plated hepatocytes) of 12.2 days. The molecule further came in with a hepatocyte CLint at 0.05 μM in the data set “in vitro” (primary plated hepatocytes (cryopreserved, 10 donors mixed)) of 0.056 µL/min/1e6 cells. Also, the “Fasted Dissolution (%)” value in data set [2] (time 0.167 h) is on record as 70.52%; in [2] (time 0.333 h) it was 95.97%; in data set [2] (time 0.50 h), 100.0%. For the same molecule, in data set [3] (All segments), the “DLM Scalar values” was 3.009. The heff cut-off value in [3] (Hintz-Johnson) is listed as 36.345 μm. The Accumulation entry in [4] is “no accumulation”. The Glycosylated hemoglobin change result in the data set on glycosylated hemoglobin is “significantly reduced”. In addition, in [5], the “Biliary CLint (CLint_bile)” value was determined as 0.025 μL/min/10^6. The solubility in “physchem” came to 7 µg/mL (≈ 15 µM). The logP in [6] was determined as 1.42. Besides, in data set [6] (Monoprotic base), the pKa worked out at 6.75. The “Metabolic stability in human liver microsomes” value in data set [7] is “very stable”. In data set [8], this molecule registered a bioavailability of 70.9%.

A word on the Cmax: it is the highest concentration seen after dosing. What is called half-life is the time needed for the level to fall by half in the phase considered. The low end stands for rapid decline, the high end for slow decline. One may read the hepatocyte CLint as a measure of how fast metabolising enzymes remove a compound, apart from limits set by blood flow. A high value points to rapid turnover. The solubility is the dissolved amount per volume that the medium holds. A lower solubility goes with little dissolved substance. The logP is a log measure of how a compound divides between an organic and an aqueous phase. Broadly, the pKa is the negative logarithm of the acid dissociation constant. Lower therefore signals a group that gives up its proton readily. As a reminder, the bioavailability is the share of a dose that reaches the circulation, judged against a reference dose that is usually intravenous. High values mean good availability, low ones poor availability.
